Test results published in patent US4829076A, “Novel dihydropyridines having calcium antagonistic and antihypertensive activity” (Alkaloida Vegyeszeti Gyar, priority 1986, dated 1989).
Where two headings read alike, the source gives them in different places. Blank lines part the entries; values can stand above or below the molecule they belong to.

How the values were obtained:
[1] = tested on: anesthetized, normotensive cats; test: Hypotensive effect in anesthetized, normotensive cats; type: in vivo, cat; conditions: 1 mg/kg id.
Method: A tube was inserted in the trachea of cats anesthetized with ip.35 mg/kg of pentobarbital sodium to ensure spontaneous respiration. The femoral artery and vein were both cannulated unilaterally. The vegetative test compounds (adrenaline, isoproterenol) were administered through the venous cannule. The mean arterial blood pressure was measured by joining the arterial cannule to a Statham P23Db pressure transducer and electromanometer. The heart rate was determined by a cardiotachometer triggered by arterial pulse-wave.
Various doses of the test compounds were administered through a cannule inserted into the duodenum.

[2] = tested on: spontaneously hypertensive conscious rats; test: Antihypertensive effect in spontaneously hypertensive conscious rats ("SH" rats); type: in vivo, rat (Wistar-Okamoto); conditions: for change in vivo at 5 mg/kg / change in vivo at 10 mg/kg / change in vivo at 2.5 mg/kg: Rattus norvegicus, po
Method: The blood pressure of rats was measured before treatment and hourly after drug administration till the 24th posttreatment hour. The test compounds were administered orally, by gavage.

[3] = tested on: conscious rats with renal hypertension; test: Antihypertensive effect in rats with renal hypertension ("RH" rats); type: in vivo, rat (CFY male); conditions: for Systolic blood pressure, 0 h: 0 h (baseline)
Method: The test was performed according to the method of Grollman [Proc. Soc. Exptl. […] The test compounds were administered orally.

[4] = tested on: conscious rats with DOCA-induced hypertension; test: Antihypertensive effect in rats with DOCA-induced hypertension ("DH" rats); type: in vivo, rat; conditions: for Systolic blood pressure, 0 h: 0 h (baseline)
Method: The test was performed according to Cunning et al. [J. Pharm. Exp. Ther. 161, 88 (1981)].

[5] = target: T1, potential-mediated calcium channel (Rattus norvegicus, UniProt P22002); test: Calcium-antagonistic effect on an isolated vessel preparation (portal vein); conditions: depolarizing solution (90 mM KCl), CaCl2 2.5 and 5.0 mM, 37° C., pH 7.4, read-out: Inhibition of the potential-mediated calcium channel, IC50
T1 construct: Portal veins were obtained from decapitated male rats; from tissue; host or cells: rat portal vein (longitudinally incised venous segment)
T1 sequence (P22002 whole entry): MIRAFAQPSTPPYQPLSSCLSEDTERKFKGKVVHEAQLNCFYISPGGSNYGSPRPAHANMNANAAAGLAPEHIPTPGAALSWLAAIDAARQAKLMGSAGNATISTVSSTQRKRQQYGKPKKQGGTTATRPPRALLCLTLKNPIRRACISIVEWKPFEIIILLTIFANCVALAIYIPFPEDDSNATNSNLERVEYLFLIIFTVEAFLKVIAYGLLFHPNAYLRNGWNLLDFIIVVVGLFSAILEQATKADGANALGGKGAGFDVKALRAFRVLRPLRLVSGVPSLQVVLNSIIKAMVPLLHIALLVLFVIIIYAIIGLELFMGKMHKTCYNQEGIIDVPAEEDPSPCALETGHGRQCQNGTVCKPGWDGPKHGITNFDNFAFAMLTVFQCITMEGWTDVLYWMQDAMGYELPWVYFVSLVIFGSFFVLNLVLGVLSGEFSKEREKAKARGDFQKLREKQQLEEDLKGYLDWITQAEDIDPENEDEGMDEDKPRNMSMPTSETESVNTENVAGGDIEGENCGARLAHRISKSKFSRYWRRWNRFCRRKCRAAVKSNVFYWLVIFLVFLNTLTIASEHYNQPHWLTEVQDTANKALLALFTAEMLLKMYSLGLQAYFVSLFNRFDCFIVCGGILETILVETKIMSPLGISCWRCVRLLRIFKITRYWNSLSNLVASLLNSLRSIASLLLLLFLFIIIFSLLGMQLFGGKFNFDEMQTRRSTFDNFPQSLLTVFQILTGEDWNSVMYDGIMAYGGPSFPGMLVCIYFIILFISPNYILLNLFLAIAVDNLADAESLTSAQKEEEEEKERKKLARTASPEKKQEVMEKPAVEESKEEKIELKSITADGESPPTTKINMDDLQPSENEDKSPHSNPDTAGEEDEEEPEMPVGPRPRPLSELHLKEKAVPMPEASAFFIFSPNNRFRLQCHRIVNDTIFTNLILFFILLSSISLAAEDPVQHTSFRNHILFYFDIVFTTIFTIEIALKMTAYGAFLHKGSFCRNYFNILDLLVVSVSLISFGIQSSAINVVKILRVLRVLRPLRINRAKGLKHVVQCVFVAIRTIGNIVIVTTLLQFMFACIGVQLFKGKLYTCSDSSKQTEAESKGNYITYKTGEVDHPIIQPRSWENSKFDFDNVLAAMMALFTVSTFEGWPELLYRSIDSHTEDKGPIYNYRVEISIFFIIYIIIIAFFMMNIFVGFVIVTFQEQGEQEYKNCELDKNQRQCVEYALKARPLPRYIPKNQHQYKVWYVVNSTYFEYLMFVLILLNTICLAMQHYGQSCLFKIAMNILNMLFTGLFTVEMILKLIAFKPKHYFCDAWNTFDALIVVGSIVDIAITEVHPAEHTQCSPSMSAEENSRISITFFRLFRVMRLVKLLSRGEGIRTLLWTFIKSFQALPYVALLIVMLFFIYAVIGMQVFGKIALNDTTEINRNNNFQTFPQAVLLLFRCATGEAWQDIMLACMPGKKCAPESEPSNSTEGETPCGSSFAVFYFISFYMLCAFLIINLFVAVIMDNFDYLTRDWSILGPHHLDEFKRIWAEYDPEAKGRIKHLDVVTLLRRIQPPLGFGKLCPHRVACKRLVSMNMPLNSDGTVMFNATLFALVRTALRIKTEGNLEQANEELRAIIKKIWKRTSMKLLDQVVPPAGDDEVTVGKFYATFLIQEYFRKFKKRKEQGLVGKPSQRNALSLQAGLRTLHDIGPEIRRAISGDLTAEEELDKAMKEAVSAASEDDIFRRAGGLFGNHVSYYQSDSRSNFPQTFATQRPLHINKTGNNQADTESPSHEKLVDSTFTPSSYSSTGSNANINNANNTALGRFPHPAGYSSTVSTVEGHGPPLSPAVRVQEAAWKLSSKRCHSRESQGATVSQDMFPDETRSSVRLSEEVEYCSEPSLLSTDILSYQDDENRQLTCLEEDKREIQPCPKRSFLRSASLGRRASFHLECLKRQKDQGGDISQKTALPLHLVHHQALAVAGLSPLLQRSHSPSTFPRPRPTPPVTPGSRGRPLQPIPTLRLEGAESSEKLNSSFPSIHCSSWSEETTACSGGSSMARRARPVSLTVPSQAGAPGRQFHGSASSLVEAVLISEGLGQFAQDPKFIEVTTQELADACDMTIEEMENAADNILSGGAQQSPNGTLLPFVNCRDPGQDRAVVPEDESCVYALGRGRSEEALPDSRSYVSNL
T1 sequence (P54290 25-943 partner limits assumed): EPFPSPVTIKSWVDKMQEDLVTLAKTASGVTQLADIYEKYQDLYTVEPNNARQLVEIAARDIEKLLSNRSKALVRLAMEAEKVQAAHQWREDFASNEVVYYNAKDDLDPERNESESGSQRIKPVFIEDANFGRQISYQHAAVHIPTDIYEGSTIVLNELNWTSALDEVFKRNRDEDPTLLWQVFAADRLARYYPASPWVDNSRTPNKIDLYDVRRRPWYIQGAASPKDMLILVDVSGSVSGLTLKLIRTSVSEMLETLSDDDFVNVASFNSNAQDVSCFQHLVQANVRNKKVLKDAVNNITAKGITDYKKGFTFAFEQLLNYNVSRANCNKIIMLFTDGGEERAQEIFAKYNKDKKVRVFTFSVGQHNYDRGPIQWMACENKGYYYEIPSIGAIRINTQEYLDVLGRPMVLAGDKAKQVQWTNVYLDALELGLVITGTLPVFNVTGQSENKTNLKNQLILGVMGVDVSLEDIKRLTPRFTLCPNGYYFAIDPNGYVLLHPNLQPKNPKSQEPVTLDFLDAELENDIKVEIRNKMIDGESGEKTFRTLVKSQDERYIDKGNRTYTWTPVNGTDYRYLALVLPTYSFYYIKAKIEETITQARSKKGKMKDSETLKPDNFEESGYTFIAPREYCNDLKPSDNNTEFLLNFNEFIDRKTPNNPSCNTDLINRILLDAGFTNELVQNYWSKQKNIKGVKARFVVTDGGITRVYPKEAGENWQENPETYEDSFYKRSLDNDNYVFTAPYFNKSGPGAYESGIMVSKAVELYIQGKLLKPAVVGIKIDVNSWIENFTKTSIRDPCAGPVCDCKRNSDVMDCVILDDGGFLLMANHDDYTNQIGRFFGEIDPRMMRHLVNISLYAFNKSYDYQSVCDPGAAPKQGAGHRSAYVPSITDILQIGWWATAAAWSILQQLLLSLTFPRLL
T1 sequence (P54290 944-1091 partner limits assumed): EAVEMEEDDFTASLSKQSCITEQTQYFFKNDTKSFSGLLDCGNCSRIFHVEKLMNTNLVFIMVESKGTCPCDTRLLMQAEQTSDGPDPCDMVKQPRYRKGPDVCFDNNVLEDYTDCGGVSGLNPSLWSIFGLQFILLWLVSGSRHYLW

[6] = target: T2, 1,4-dihydropyridine receptor; test: Receptor binding studies (displacement of 3H-nitrendipine, heart microsomal preparation); conditions: displacement of 50% of 3H-nitrendipine
T2 construct: to the heart microsomal preparation; from tissue; host or cells: heart microsomal preparation

[7] = tested on: PGF2alpha induced uterus contractions (isolated rat uterus); test: In vitro uterus relaxant activity in the isolated rat uterus (inhibition of PGF2alpha induced contraction); conditions: 10^-6 M test compound
Method: The test was performed according to the method of Gaddum and Hammeed [Brit. […] The inhibitory activity of 10^-6 M doses of the test compounds on the PGF2alpha induced uterus contractions was determined.

[8] = 10 mg/kg p.o., 2 h, read-out: Systolic blood pressure reduction in %, 2 h
[9] = 10 mg/kg p.o., 5 h, read-out: Systolic blood pressure reduction in %, 5 h
[10] = 10 mg/kg p.o., 24 h, read-out: Systolic blood pressure reduction in %, 24 h
[11] = 2.5 mg/kg p.o., 2 h, read-out: Systolic blood pressure reduction in %, 2 h
[12] = 2.5 mg/kg p.o., 5 h, read-out: Systolic blood pressure reduction in %, 5 h
[13] = 2.5 mg/kg p.o., 24 h, read-out: Systolic blood pressure reduction in %, 24 h

IC50 [5]: 0.5 nM | IC50 [6]: 6.3 ± 0.05 nM
Structure (SMILES): COC(=O)C1=C(C)NC(C)=C(C(=O)OC)C1c1ccccc1NC(=O)c1ccc([N+](=O)[O-])cc1 [Example 7]
Mean arterial pressure, 5 min [1]: 115 Hgmm | Mean arterial pressure, 15 min [1]: 60 Hgmm | Mean arterial pressure, 30 min [1]: 50 Hgmm | Mean arterial pressure, 60 min [1]: 60 Hgmm | Mean arterial pressure, 120 min [1]: 85 Hgmm | Systolic blood pressure, 2 h ([2]; 5 mg/kg p.o., 2 h): 175.2 Hgmm | Systolic blood pressure, 5 h ([2]; 5 mg/kg p.o., 5 h): 157.6 Hgmm | Systolic blood pressure, 24 h ([2]; 5 mg/kg p.o., 24 h): 217.6 Hgmm | Systolic blood pressure, 2 h ([2]; 10 mg/kg p.o., 2 h): 164.0 Hgmm | Systolic blood pressure, 5 h ([2]; 10 mg/kg p.o., 5 h): 164.0 Hgmm | Systolic blood pressure, 24 h ([2]; 10 mg/kg p.o., 24 h): 230.0 Hgmm | change in vivo at 5 mg/kg ([2]; 5 mg/kg p.o., 2 h, read-out: Systolic blood pressure reduction in %, 2 h): -15% | change in vivo at 5 mg/kg ([2]; 5 mg/kg p.o., 5 h, read-out: Systolic blood pressure reduction in %, 5 h): -24% | change in vivo at 5 mg/kg ([2]; 5 mg/kg p.o., 24 h, read-out: Systolic blood pressure reduction in %, 24 h): 5% | change in vivo at 10 mg/kg [2, 8]: -28% | change in vivo at 10 mg/kg [2, 9]: -28% | change in vivo at 10 mg/kg [2, 10]: 1% | Systolic blood pressure, 0 h ([3]; 5 mg/kg p.o.): 206.6 Hgmm | Pressure reduction in %, 2 h ([3]; 5 mg/kg p.o.): -15% | Systolic blood pressure, 2 h ([3]; 5 mg/kg p.o.): 177.7 Hgmm | Pressure reduction in %, 5 h ([3]; 5 mg/kg p.o.): -13% | Systolic blood pressure, 5 h ([3]; 5 mg/kg p.o.): 188.6 Hgmm | Pressure reduction in %, 24 h ([3]; 5 mg/kg p.o.): +3% | Systolic blood pressure, 24 h ([3]; 5 mg/kg p.o.): 213.3 Hgmm | Systolic blood pressure, 0 h ([3]; 10 mg/kg p.o.): 198.8 Hgmm | Pressure reduction in %, 2 h ([3]; 10 mg/kg p.o.): -31% | Systolic blood pressure, 2 h ([3]; 10 mg/kg p.o.): 138.8 Hgmm | Pressure reduction in %, 5 h ([3]; 10 mg/kg p.o.): -25% | Systolic blood pressure, 5 h ([3]; 10 mg/kg p.o.): 150.0 Hgmm | Pressure reduction in %, 24 h ([3]; 10 mg/kg p.o.): +6% | Systolic blood pressure, 24 h ([3]; 10 mg/kg p.o.): 212.2 Hgmm | Systolic blood pressure, 0 h ([4]; 5 mg/kg p.o.): 176.8 Hgmm | Pressure reduction in %, 2 h ([4]; 5 mg/kg p.o.): -24% | Systolic blood pressure, 2 h ([4]; 5 mg/kg p.o.): 135.7 Hgmm | Pressure reduction in %, 5 h ([4]; 5 mg/kg p.o.): -16% | Systolic blood pressure, 5 h ([4]; 5 mg/kg p.o.): 149.4 Hgmm | Pressure reduction in %, 24 h ([4]; 5 mg/kg p.o.): +2% | Systolic blood pressure, 24 h ([4]; 5 mg/kg p.o.): 180.8 Hgmm | Systolic blood pressure, 0 h ([4]; 10 mg/kg p.o.): 176.2 Hgmm | Pressure reduction in %, 2 h ([4]; 10 mg/kg p.o.): -28% | Systolic blood pressure, 2 h ([4]; 10 mg/kg p.o.): 126.7 Hgmm | Pressure reduction in %, 5 h ([4]; 10 mg/kg p.o.): -17% | Systolic blood pressure, 5 h ([4]; 10 mg/kg p.o.): 147.5 Hgmm | Pressure reduction in %, 24 h ([4]; 10 mg/kg p.o.): 0% | Systolic blood pressure, 24 h ([4]; 10 mg/kg p.o.): 177.5 Hgmm

Structure (SMILES): COC(=O)C1=C(C)NC(C)=C(C(=O)OC)C1c1ccccc1NC(=O)c1ccccc1[N+](=O)[O-] [Example 8]
Inhibition of PGF2alpha induced contraction [7]: 96.7%

Structure (SMILES): COC(=O)C1=C(C)NC(C)=C(C(=O)OC)C1c1ccccc1NC(=O)C=Cc1ccccc1 [Example 9]
Inhibition of PGF2alpha induced contraction [7]: 94.3% | Mean arterial pressure, 5 min [1]: 125 Hgmm | Mean arterial pressure, 15 min [1]: 85 Hgmm | Mean arterial pressure, 30 min [1]: 65 Hgmm | Mean arterial pressure, 60 min [1]: 75 Hgmm | Mean arterial pressure, 120 min [1]: 102 Hgmm | Systolic blood pressure, 2 h ([2]; 10 mg/kg p.o., 2 h): 166.6 Hgmm | Systolic blood pressure, 5 h ([2]; 10 mg/kg p.o., 5 h): 166.6 Hgmm | Systolic blood pressure, 24 h ([2]; 10 mg/kg p.o., 24 h): 192.0 Hgmm | change in vivo at 10 mg/kg [2, 8]: -13% | change in vivo at 10 mg/kg [2, 9]: -13% | change in vivo at 10 mg/kg [2, 10]: 1%

Structure (SMILES): COC(=O)C1=C(C)NC(C)=C(C(=O)OC)C1c1ccccc1NC(=O)c1ccco1 [Example 10]
Inhibition of PGF2alpha induced contraction [7]: 94.0% | Mean arterial pressure, 5 min [1]: 60 Hgmm | Mean arterial pressure, 15 min [1]: 70 Hgmm | Mean arterial pressure, 30 min [1]: 80 Hgmm | Mean arterial pressure, 60 min [1]: 85 Hgmm

Structure (SMILES): COC(=O)C1=C(C)NC(C)=C(C(=O)OC)C1c1ccccc1NC(=O)C=Cc1ccc([N+](=O)[O-])cc1 [Example 11]
Inhibition of PGF2alpha induced contraction [7]: 77.8% | Mean arterial pressure, 5 min [1]: 147 Hgmm | Mean arterial pressure, 15 min [1]: 130 Hgmm | Mean arterial pressure, 30 min [1]: 125 Hgmm | Mean arterial pressure, 60 min [1]: 120 Hgmm | Mean arterial pressure, 120 min [1]: 132 Hgmm | Systolic blood pressure, 2 h ([2]; 10 mg/kg p.o., 2 h): 140 Hgmm | Systolic blood pressure, 5 h ([2]; 10 mg/kg p.o., 5 h): 157.8 Hgmm | Systolic blood pressure, 24 h ([2]; 10 mg/kg p.o., 24 h): 178.8 Hgmm | change in vivo at 10 mg/kg [2, 8]: -26% | change in vivo at 10 mg/kg [2, 9]: -16% | change in vivo at 10 mg/kg [2, 10]: -5%

Structure (SMILES): COC(=O)C1=C(C)NC(C)=C(C(=O)OC)C1c1ccccc1NC(=O)c1ccccc1 [Example 12]
Inhibition of PGF2alpha induced contraction [7]: 83.3% | Mean arterial pressure, 5 min [1]: 115 Hgmm | Mean arterial pressure, 15 min [1]: 92 Hgmm | Mean arterial pressure, 30 min [1]: 90 Hgmm | Mean arterial pressure, 60 min [1]: 97 Hgmm | Mean arterial pressure, 120 min [1]: 145 Hgmm | Systolic blood pressure, 2 h ([2]; 10 mg/kg p.o., 2 h): 164 Hgmm | Systolic blood pressure, 5 h ([2]; 10 mg/kg p.o., 5 h): 166.0 Hgmm | Systolic blood pressure, 24 h ([2]; 10 mg/kg p.o., 24 h): 190.8 Hgmm | change in vivo at 10 mg/kg [2, 8]: -14% | change in vivo at 10 mg/kg [2, 9]: -13% | change in vivo at 10 mg/kg [2, 10]: 0%

IC50 [5]: 3 nM | IC50 [6]: 15.5 ± 3.5 nM
Structure (SMILES): COC(=O)C1=C(C)NC(C)=C(C(=O)OC)C1c1ccccc1NC(=O)c1ccc(C)cc1 [Example 15]
Mean arterial pressure, 5 min [1]: 90 Hgmm | Mean arterial pressure, 15 min [1]: 65 Hgmm | Mean arterial pressure, 30 min [1]: 65 Hgmm | Mean arterial pressure, 60 min [1]: 73 Hgmm | Mean arterial pressure, 120 min [1]: 90 Hgmm | Systolic blood pressure, 2 h ([2]; 2.5 mg/kg p.o., 2 h): 141.4 Hgmm | Systolic blood pressure, 5 h ([2]; 2.5 mg/kg p.o., 5 h): 139.2 Hgmm | Systolic blood pressure, 24 h ([2]; 2.5 mg/kg p.o., 24 h): 193.8 Hgmm | change in vivo at 2.5 mg/kg [2, 11]: -31% | change in vivo at 2.5 mg/kg [2, 12]: -32% | change in vivo at 2.5 mg/kg [2, 13]: -5%

Structure (SMILES): CCc1ccc(C(=O)Nc2ccccc2C2C(C(=O)OC)=C(C)NC(C)=C2C(=O)OC)cc1 [Example 22]
Mean arterial pressure, 5 min [1]: 120 Hgmm | Mean arterial pressure, 15 min [1]: 110 Hgmm | Mean arterial pressure, 30 min [1]: 105 Hgmm | Mean arterial pressure, 60 min [1]: 85 Hgmm | Mean arterial pressure, 120 min [1]: 85 Hgmm | Systolic blood pressure, 2 h ([2]; 2.5 mg/kg p.o., 2 h): 142.2 Hgmm | Systolic blood pressure, 5 h ([2]; 2.5 mg/kg p.o., 5 h): 144.0 Hgmm | Systolic blood pressure, 24 h ([2]; 2.5 mg/kg p.o., 24 h): 191.4 Hgmm | change in vivo at 2.5 mg/kg [2, 11]: -27% | change in vivo at 2.5 mg/kg [2, 12]: -26% | change in vivo at 2.5 mg/kg [2, 13]: -2%

Structure (SMILES): COCCOC(=O)C1=C(C)NC(C)=C(C(=O)OC)C1c1ccccc1NC(=O)c1ccc([N+](=O)[O-])cc1 (centres unmarked) [Example 28]
Mean arterial pressure, 5 min [1]: 137 Hgmm | Mean arterial pressure, 15 min [1]: 105 Hgmm | Mean arterial pressure, 30 min [1]: 97 Hgmm | Mean arterial pressure, 60 min [1]: 100 Hgmm | Mean arterial pressure, 120 min [1]: 115 Hgmm | Systolic blood pressure, 2 h ([2]; 10 mg/kg p.o., 2 h): 174.8 Hgmm | Systolic blood pressure, 5 h ([2]; 10 mg/kg p.o., 5 h): 163.5 Hgmm | Systolic blood pressure, 24 h ([2]; 10 mg/kg p.o., 24 h): 202.4 Hgmm | change in vivo at 10 mg/kg [2, 8]: -10% | change in vivo at 10 mg/kg [2, 9]: -16% | change in vivo at 10 mg/kg [2, 10]: 4%

Structure (SMILES): COC(=O)C1=C(C)NC(C)=C(C(=O)OC)C1c1ccccc1NS(=O)(=O)c1ccc([N+](=O)[O-])cc1 [Example 42, 2,6-Dimethyl-3,5bis(methoxycarbonyl)-4-[2-(4-nitrobenzenesulfonamido)-phenyl]-1,4-dihydropyridine]
Inhibition of PGF2alpha induced contraction [7]: 88.0%
